# Like-named read-outs stand apart in the source and are kept apart here.
# Tests used:
# [1] = molecular target: T1, SARS-CoV-2 nsp3-mac1 (Severe acute respiratory syndrome coronavirus 2, UniProt P0DTD1); experiment: biochemical; design: SARS-CoV-2 nsp3 macrodomain TR-FRET single point, per cent inhibition, n=2
# [2] = molecular target: T1, SARS-CoV-2 nsp3-mac1; experiment: biochemical; assay type: biochemical; settings: SARS-CoV-2 nsp3 macrodomain TR-FRET single point
# [3] = read-out: perc_inhibition_mean, batch_name=ASAP-0000061-002
smiles,measurement,setting,value
CCCNC(=O)[C@H]1CCCN(c2ncnc3[nH]ccc23)C1 [ASAP-0000053],inhibition at 50 µM,"[1]; read-out: perc_inhibition_mean, batch_name=ASAP-0000053-001",-4.36%
same,perc_inhibition_mean,[2]; concentration 50.0 uM,-4.36%
c1cnc([C@@H]2CCN(c3ncnc4[nH]ccc34)C2)cn1 [ASAP-0000054],inhibition at 50 µM,"[1]; read-out: perc_inhibition_mean, batch_name=ASAP-0000054-001",-1.7%
same,perc_inhibition_mean,[2]; concentration 50.0 uM,-1.697%
c1nc(N2CCC[C@@H](c3nc4c(s3)CCC4)C2)c2c[nH]nc2n1 [ASAP-0000055],inhibition at 50 µM,"[1]; read-out: perc_inhibition_mean, batch_name=ASAP-0000055-001",3.83%
same,perc_inhibition_mean,[2]; concentration 50.0 uM,3.826%
O[C@@]1(C(F)(F)F)CCCN(c2ncnc3n[nH]cc23)CC1 [ASAP-0000057],inhibition at 50 µM,"[1]; read-out: perc_inhibition_mean, batch_name=ASAP-0000057-001",-4.14%
same,perc_inhibition_mean,[2]; concentration 50.0 uM,-4.139%
CN(C)[C@@H]1CCCN(C(=O)c2cnc3c(c2)c(=O)[nH]c(=O)n3C)CC1 [ASAP-0000058],inhibition at 50 µM,"[1]; read-out: perc_inhibition_mean, batch_name=ASAP-0000058-001",-8.97%
same,perc_inhibition_mean,[2]; concentration 50.0 uM,-8.971%
c1ccc(-c2n[nH]cc2CNc2cnc3[nH]ncc3c2)cc1 [ASAP-0000059],inhibition at 50 µM,"[1]; read-out: perc_inhibition_mean, batch_name=ASAP-0000059-001",-2.04%
same,perc_inhibition_mean,[2]; concentration 50.0 uM,-2.044%
COc1cc(Nc2ncnc3[nH]ccc23)ccc1NC(C)=O [ASAP-0000060],inhibition at 50 µM,"[1]; read-out: perc_inhibition_mean, batch_name=ASAP-0000060-001",-7.76%
same,perc_inhibition_mean,[2]; concentration 50.0 uM,-7.761%
O=C(Nc1cnc2[nH]ncc2c1)c1ccncc1Cl [ASAP-0000061],inhibition at 50 µM,"[1]; read-out: perc_inhibition_mean, batch_name=ASAP-0000061-001",-0.272%
same,inhibition at 50 µM,[1]; [3],-2.75%
same,inhibition at 100 µM,[1]; [3],2.96%
same,perc_inhibition_mean,[2]; concentration 50.0 uM,-0.272%
same,perc_inhibition_mean,"[2]; concentration 50.0 uM, n=2",-2.752%
same,perc_inhibition_mean,"[2]; concentration 100.0 uM, n=2",2.961%
NC(=O)[C@@H]1CCN(C(=O)c2cnc3[nH]c(=O)[nH]c(=O)c3c2)C1 [ASAP-0000062],inhibition at 50 µM,"[1]; read-out: perc_inhibition_mean, batch_name=ASAP-0000062-001",-6.32%
same,perc_inhibition_mean,[2]; concentration 50.0 uM,-6.322%
Brc1ccc(-n2nnnc2Sc2ncnc3[nH]ccc23)cc1 [ASAP-0000063],inhibition at 50 µM,"[1]; read-out: perc_inhibition_mean, batch_name=ASAP-0000063-001",12.7%
same,perc_inhibition_mean,[2]; concentration 50.0 uM,12.69%
c1ccc(-c2cc(CNc3ncnc4[nH]ccc34)on2)cc1 [ASAP-0000064],inhibition at 100 µM,"[1]; read-out: perc_inhibition_mean, batch_name=ASAP-0000064-001",-3.46%
same,perc_inhibition_mean,[2]; concentration 100.0 uM,-3.456%
CC1OCCC1(O)CNC(=O)c1ncnc2[nH]ccc12 (stereo not shown) [ASAP-0000065],inhibition at 50 µM,"[1]; read-out: perc_inhibition_mean, batch_name=ASAP-0000065-001",1.86%
same,perc_inhibition_mean,[2]; concentration 50.0 uM,1.864%
O=C(OCc1ccc(Cl)nc1)c1ncnc2[nH]ccc12 [ASAP-0000066],inhibition at 50 µM,"[1]; read-out: perc_inhibition_mean, batch_name=ASAP-0000066-001",6.08%
same,perc_inhibition_mean,[2]; concentration 50.0 uM,6.084%
O=C(Nc1nc2ccc(F)cc2[nH]1)c1cc(N2CCNC2=O)ccc1F [ASAP-0000067],inhibition at 50 µM,"[1]; read-out: perc_inhibition_mean, batch_name=ASAP-0000067-001",-7.71%
same,perc_inhibition_mean,[2]; concentration 50.0 uM,-7.707%
O=C(NCc1nc(-c2ccco2)n[nH]1)c1cc2nccn2c(=O)[nH]1 [ASAP-0000068],inhibition at 50 µM,"[1]; read-out: perc_inhibition_mean, batch_name=ASAP-0000068-001",-5.42%
same,perc_inhibition_mean,[2]; concentration 50.0 uM,-5.425%
O=C(Nc1ccc(O)cc1)Nc1ccc(Oc2ccccc2)cc1 [ASAP-0000069],inhibition at 50 µM,"[1]; read-out: perc_inhibition_mean, batch_name=ASAP-0000069-001",-3.31%
same,perc_inhibition_mean,[2]; concentration 50.0 uM,-3.306%
COc1nc2cc(NC(=O)c3cc(N4CCNC4=O)ccc3F)ccc2[nH]1 [ASAP-0000070],inhibition at 50 µM,"[1]; read-out: perc_inhibition_mean, batch_name=ASAP-0000070-001",-4.21%
same,perc_inhibition_mean,[2]; concentration 50.0 uM,-4.208%
CC(C)OCCNC(=O)c1cc2c(=O)n3ccccc3nc2n1C [ASAP-0000071],inhibition at 50 µM,"[1]; read-out: perc_inhibition_mean, batch_name=ASAP-0000071-001",14%
same,perc_inhibition_mean,[2]; concentration 50.0 uM,14.037%
O=C(O)[C@H]1CCCCCN1C(=O)c1ncnc2[nH]ccc12 [ASAP-0000072],inhibition at 50 µM,"[1]; read-out: perc_inhibition_mean, batch_name=ASAP-0000072-001",11.8%
same,perc_inhibition_mean,[2]; concentration 50.0 uM,11.75%
C[C@@H](O)[C@@H]1CN(C(=O)c2ncnc3[nH]ccc23)CCO1 [ASAP-0000073],inhibition at 50 µM,"[1]; read-out: perc_inhibition_mean, batch_name=ASAP-0000073-001",-3.13%
same,perc_inhibition_mean,[2]; concentration 50.0 uM,-3.131%
c1ccc(Cn2ncc3c2CCC[C@@H]3Nc2ncnc3[nH]ccc23)cc1 [ASAP-0000074],inhibition at 50 µM,"[1]; read-out: perc_inhibition_mean, batch_name=ASAP-0000074-001",5.85%
same,perc_inhibition_mean,[2]; concentration 50.0 uM,5.848%
FC(F)(F)CO[C@@H]1CCCN(c2ncnc3[nH]ccc23)C1 [ASAP-0000075],inhibition at 50 µM,"[1]; read-out: perc_inhibition_mean, batch_name=ASAP-0000075-001",22.2%
same,perc_inhibition_mean,[2]; concentration 50.0 uM,22.218%
C[C@@H](CO)Nc1ncnc2[nH]c(C(=O)OC(C)(C)C)cc12 [ASAP-0000076],inhibition at 50 µM,"[1]; read-out: perc_inhibition_mean, batch_name=ASAP-0000076-001",10.7%
same,perc_inhibition_mean,[2]; concentration 50.0 uM,10.712%
CC(C)(C[C@@H]1CCCN(c2ncnc3[nH]ccc23)C1)C(N)=O [ASAP-0000077],inhibition at 50 µM,"[1]; read-out: perc_inhibition_mean, batch_name=ASAP-0000077-001",-1.59%
same,perc_inhibition_mean,[2]; concentration 50.0 uM,-1.586%

# — article doi:10.1101/2024.08.19.608619, “Discovery of potent SARS-CoV-2 nsp3 macrodomain inhibitors uncovers lack of translation to cellular antiviral response” (bioRxiv, 2024)
